Columns and labels:
[1] = migration of stabiliser from PVC into solutions or solvents simulating foods at 50° C.; assay type: physicochemical
Protocol: (§1) The technique as regards extraction was the following: using the formula which is given below, a batch of bottles (volume 1 liter, diameter 70 mm, height.perspectiveto.230 mm) was prepared, the said bottles being filled with a liquid simulating the foods. […] The migration of the stabiliser was judged by dosage of the pyridine present in the extractum, using the dosage method which is later described. This pyridine obviously represents the oxidised form of the extracted 1,4-dihydropyridine.
(§2) The stabilisers are measured out in the form of their oxidation product (pyridine).
(§3) The oxidation is made quantitative by adding a few drops of iodine to the solution. The latter is then extracted with chloroform and the chloroform is evaporated to a small residual volume. The solution obtained is then subjected to thin-film chromatography, by comparison with solutions of known concentration of the desired pyridines.
(§4) The sensitivity threshold of this technique is 5 μg/liter.
For justifying the possibility of using the dihydropyridines (I) having a radical R comprising from 9 to 22 carbon atoms in applications concerned with food packaging, other than those applications relating to mineral waters, the extractability of the dihydropyridines by several solutions or solvents having the following composition, by weight, was investigated:
(a) water-sodium chloride: 97-3
(b) water-saccharose: 90-10
(c) water-sodium chloride-acetic acid: 98.5-0.5-1
(d) water-citric acid (solution at pH=5): 98-2
(e) water-acetic acid: 97-3
(f) water-acetic acid: 90-10
(h) water-acetic acid: 50-50

[2] = polarographic oxidation potential (Example 31); assay type: physicochemical; details: 0.5 m.mole/liter; methanol/acetic acid; 35° C.
Protocol: platinum counter-electrode and calomel electrode with filling by a saturated aqueous solution of lithium chloride.
The measurements were carried out in the following solvent:
90 parts of an 0.1 M solution of lithium perchlorate in methanol, 10 parts of a 0.1 M solution of perchloric acid in acetic acid. square voltage superimposed with constant pulses of +10 millivolts, initial potential: 500 millivolts, scanning voltage: 1000 millivolts in the anode direction, oxidation at the vitreous carbon electrode (speed of rotation: 2000 r.p.m.)

[3] = sublimation at 160° C. for 6 hours under nitrogen; assay type: physicochemical
Protocol: A test sample of about 130 mg of the product to be investigated is introduced into a 100 cc beaker. The latter is placed in a 250 cc reactor. The temperature is kept at 160° C. by means of a thermostatically controlled oil bath for 6 hours, the atmosphere of the reactor being inert (nitrogen) in order to avoid the oxidation of the 1,4-dihydropyridine into pyridine, which is more sublimable.
For each dihydropyridine derivative which is investigated, the result is expressed as a percentage of sublimed product relatively to the quantity being used.

[4] = polarographic study of the oxidation potential (Example 30); assay type: physicochemical; details: acetonitrile, lithium perchlorate; calomel electrode; in V (unit assumed)
From the text: 261. Polarographic study of the oxidation potential […]
reference electrode: a calomel electrode which contains, as junction liquid, a saturated solution of anhydrous lithium perchlorate working electrode: rotating electrode of vitreous carbon (2500 r.p.m.) counter-electrode: platinum. acetonitrile, having a water content smaller than 0.1% and not presenting any polarographic waves between -2.5 volts and +2.5 volts.
0.1 M solution of lithium perchlorate in acetonitrile, treated and preserved on a molecular screen of 4 A. […]
exploration amplitude: 0 to 2 V exploration speed: 10 mV/sec.

[5] = stabilisation of plasticised polyvinyl chloride resins: mixing at 180° C., pressing at 170° C.; details: for Colour stability / Thermal stability: 180° C.
Protocol: Sheets of polyvinyl chloride, previously mixed for 5 minutes at 180° C., were pressed for 5 minutes at 170° C., and the colour stability and the heat stability after mixing, and then the coloration of the sheets after pressing, were observed.
As adjuvants, as well as the stabiliser to be tested, the resin in question contains wax E, dioctyl phthalate, barium stearate and cadmium stearate, in the following proportions: […]

[6] = thermostability of rigid vinyl chloride-vinylidene chloride copolymer, ventilated oven at 210° C.; details: 0.15 p.c.r.; Example 29
Protocol: Rigid copolymer formula vinyl chloride-vinylidene chloride copolymer.
Passage through a ventilated oven at 210° C.
Passage through ventilated oven at 210° C.
Passage in ventilated oven at 210° C.

[7] = migration of stabiliser from PVC bottles into water at 50° C.; assay type: physicochemical; details: water 50° C.
Protocol: 2.2--Study of the migration
The migration or the extractability of the stabiliser from the PVC compound under the effect of various liquids (and particularly water) stored in a plastic container is of essential importance for the use of these stabilisers in the field of food packagings.
as §1
The investigation was particularly developed for water at 50° C. over a period of 2 months, because it represents the important problem regarding the packaging of mineral waters.
Formula for the manufacture of bottles
The S L 2016 is a solution of zinc 2-ethyl hexanoate in a mixture of aromatic hydrocarbons boiling from 158° to 184° C.
as §2, §3, §4

[8] = resin 5: 0.1, Ba 0.375, Cd 0.375
[9] = resin 7: 0.05, Ba 0.375, Cd 0.15
[10] = resin 9: 0.05, Ba 0.375, Cd 0.05

COC(=O)C1=C(C)NC(C)=C(C(=O)OC)C1 [L.28504, 2,6-Dimethyl-3,5-dicarbomethoxy-1,4-dihydropyridine]
Migration ([1]; H2O/NaCl (97:3), 0.3, 1 month): 100 µg/L | Migration ([1]; H2O/NaCl (97:3), 0.3, 2 months): 120 µg/L | Migration ([1]; Heptane, 0.3 pcr, after 36 h): 300 µg/L | Migration ([1]; Heptane, 0.3 pcr, after 84 h): 390 µg/L | Migration ([1]; Water/C2H5OH (50:50), 0.3, 1 month): 250 µg/L | Migration ([1]; Water/C2H5OH (85:15), 0.3, 1 month): 150 µg/L | Migration ([1]; Water/C2H5OH (85:15), 0.3, 2 months): 180 µg/L | Migration ([1]; Water/CH3COOH (50:50), 0.3, 1 month): 150 µg/L | Migration ([1]; Water/CH3COOH (50:50), 0.3, 2 months): 200 µg/L | Migration ([1]; Water/CH3COOH (90:10), 0.3, 1 month): 120 µg/L | Migration ([1]; Water/CH3COOH (90:10), 0.3, 2 months): 140 µg/L | Migration ([1]; Water/CH3COOH (97:3), 0.3, 1 month): 90 µg/L | Migration ([1]; Water/CH3COOH (97:3), 0.3, 2 months): 120 µg/L | Migration ([1]; Water/NaCl/CH3COOH (98,5:0,5:1), 0.3, 1 month): 110 µg/L | Migration ([1]; Water/NaCl/CH3COOH (98,5:0,5:1), 0.3, 2 months): 120 µg/L | Migration ([1]; Water/Sacchrose (90:10), 0.3, 1 month): 100 µg/L | Migration ([1]; Water/Sacchrose (90:10), 0.3, 2 months): 100 µg/L | Migration ([1]; Water/citric acid (98:2), pH 5, 0.3, 1 month): 110 µg/L | Migration ([1]; Water/citric acid (98:2), pH 5, 0.3, 2 months): 130 µg/L | Oxidation potential [2]: 850 millivolts | % of sublimed product ([3]; 160° C., 6 hours, nitrogen): 34.2% | sublimation ([3]; of the quantity of product being used): 34% | Oxidation potential [4]: 0.74 ± 0.01 | Colour stability [5, 8]: 50 min | Thermal stability [5, 8]: 50 min | Colour stability [5, 9]: 45 min | Thermal stability [5, 9]: 55 min | Colour stability [5, 10]: 35 min | Thermal stability [5, 10]: 50 min | basic shade and thermal stability ([5]; words): substantially improves the basic shade and clearly increases the thermal stability | thermostabilisation of copolymer versus 2-phenyl indole [6]: better result than 0.3 p.c.r. of 2-phenyl indole | Migration ([7]; 0.15 pct, 1 month): 70 µg/L | Migration ([7]; 0.15 pct, 2 months): 80 µg/L | Migration ([7]; 0.15 pct, 10 days): 15 µg/L | Migration ([7]; 0.15 pct, 20 days): 40 µg/L | Migration ([7]; 0.30 pct, 1 month): 120 µg/L | Migration ([7]; 0.30 pct, 2 months): 120 µg/L | Migration ([7]; 0.30 pct, 10 days): 70 µg/L | Migration ([7]; 0.30 pct, 20 days): 100 µg/L
